Read-outs that look alike come from different tables or passages of the source.
Experiments:
P. falciparum strain D6 = experiment: SYBR green antiplasmodial assay, strain D6; assay type: cell-based, Plasmodium falciparum
Description: (§1) Automated pipetting and dilution was carried out with the aid of a programmable Precision 2000 robotic station (BioTek, Winooski, Vt.). An initial parasitemia of 0.2% was obtained by addition of normal uninfected red cells to a stock culture of asynchronous parasite infected red cells (PRBC).

P. falciparum strain Dd2 = experiment: SYBR green antiplasmodial assay, strain Dd2; assay type: cell-based, Plasmodium falciparum; conditions: read-out: IC50, nM, P. falciparum strain Dd2
Description: as §1

[1] = system: P. falciparum strain Tm90-C2B; experiment: SYBR green antiplasmodial assay, strain Tm90-C2B; assay type: cell-based, Plasmodium falciparum; conditions: read-out: IC50, nM, P. falciparum strain Tm90-C2B
Description: as §1

[2] = system: P. yoelii (Kenya strain, MR4 MRA-428); experiment: Single dose cure (SDC) of patent blood stage murine malaria infection; assay type: in vivo, Plasmodium yoelii; conditions: mice; for minimal effective dose: Plasmodium yoelii, po, 720 h, single dose, read-out: Lowest fully effective single dose cure P. yoelii; for lowest fully protective single-dose cure (SDC): single oral dose in PEG-400, parasite free 30 days
Description: As described above, mice (female, CF1, Charles River Labs) were infected intravenously with 10^5 P. yoelii (Kenya strain, MR4 MRA-428/Murine LDH Elevating Virus-Free) parasitized erythrocytes from a donor animal. Drug administration commenced the day after the animals were inoculated (Day 1). The test compounds were dissolved in PEG-400 and administered by oral gavage once. On the 5th day blood films were prepared and the extent of parasitemia was determined by microscopic examination of Giemsa stained smears. Animals remaining parasite free 30 days after the last drug dose were considered cured of their infection.

P. yoelii = experiment: 4-day suppression test in P. yoelii infected mice; assay type: in vivo, Plasmodium yoelii; conditions: dosing on 4 sequential days, smears on Day 5
[3] = Chemical stability in solvent / acidic conditions; assay type: physicochemical
Description: Ethyl chloroformate is then added dropwise. The reaction goes to completion in minutes upon the addition of the chloroformate forming one regioisomer in very high yield. […] Results are summarized in Scheme 1

P. falciparum = experiment: In vitro intrinsic antiplasmodial activity against all test strains; assay type: cell-based, Plasmodium falciparum
[4] = Oral bioavailability in mice; assay type: in vivo; conditions: relative to ELQ-300
[5] = Oral bioavailability in rats; assay type: in vivo; conditions: relative to ELQ-300
[6] = target: Plasmodium falciparum cytochrome bc1 complex (Plasmodium falciparum, UniProt Q02768); experiment: Inhibition of cytochrome bc1 complex; assay type: biochemical
[7] = human, microsomes
Description: The loss of substrate was monitored by LC/MS/MS. Midazolam was monitored as a well characterized positive control. Midazolam represents a drug with comparatively low metabolic stability. Incubations were conducted in the absence of the NADPH regenerating system to monitor for potential P450-independent metabolism.

[8] = Stability of prodrug to metabolism
[9] = In vivo efficacy of earlier prodrug versus parent compound; conditions: compared to the parent compound ELQ-300
[10] = Plasmodium falciparum, D6; read-out: P. falciparum strain D6, IC50
[11] = Plasmodium falciparum, D6, 72 h; read-out: IC50, nM, P. falciparum strain D6
[12] = Plasmodium falciparum, DD2, 72 h, multidrug resistant strain
[13] = Plasmodium falciparum, TM90, 72 h, resistant to chloroquine and atovaquone
[14] = single oral doses in the range of 1 to 20 mg/kg
[15] = 72 h, chloroquine sensitive strain; Table 1 of Example 4; read-out: IC50, nM, P. falciparum strain D6
[16] = 72 h, multidrug resistant strain
[17] = 72 h, resistant to chloroquine and atovaquone

CCN(CC)CCCC(C)Nc1ccnc2cc(Cl)ccc12 (centres unmarked) [Chloroquine, reference compound]
IC50 (P. falciparum strain D6; Plasmodium falciparum, D6, 72 h, read-out: IC50, nM, P. falciparum strain D6): 10 nM
IC50 (P. falciparum strain Dd2; Plasmodium falciparum, DD2, 72 h): 137 nM
IC50 ([1]; Plasmodium falciparum, TM90, 72 h): 98 nM

COCCOC(=O)Oc1c(-c2ccc(Oc3ccc(OC(F)(F)F)cc3)cc2)c(C)nc2cc(OC)c(Cl)cc12 [ELQ-354, 6-chloro-7-methoxy-2-methyl-3-(4-(4-(trifluoromethoxy)phenoxy)phenyl)quinolin-4-yl(2-methoxyethyl) carbonate]
IC50 (P. falciparum strain D6; [10]): 3 nM
minimal effective dose [2]: 3 mg/kg

CCOC(=O)Oc1c(-c2ccc(Oc3ccc(OC(F)(F)F)cc3)cc2)c(C)nc2cc(OC)c(Cl)cc12 [ELQ-337, 6-chloro-7-methoxy-2-methyl-3-(4-(4-(trifluoromethoxy)phenoxy)phenyl)quinolin-4-yl ethyl carbonate]
IC50 (P. falciparum strain D6; [10]): 2.5 nM
minimal effective dose [2]: 3 mg/kg
animals in which single dose failed ([2]; 1 mg/kg, on Day 12): 4/4
single dose cures (SDC), animals cured ([2]; doses as low as 3 mg/kg): 4/4
ED50 (P. yoelii): 0.02 mg/kg/day
ED90 (P. yoelii): 0.05 mg/kg/day
ED99 (P. yoelii): 0.075 mg/kg/day
chemical stability ([3]; 50/50 mixtures of methanol and water at pH 3 and 8 overnight): chemically stable
IC50 values against all test strains (P. falciparum): low to sub-nanomolar range
oral bioavailability [4]: enhanced over ELQ-300
oral bioavailability [5]: enhanced over ELQ-300

COc1cc2nc(C)c(-c3ccc(Oc4ccc(OC(F)(F)F)cc4)cc3)c(OC(C)=O)c2cc1Cl [ELQ-370]
chemical stability to acid [3]: chemically unstable to mildly acidic conditions
stability in methanol [3]: decomposes rapidly in methanol

COc1cc2[nH]c(C)c(-c3ccc(Oc4ccc(OC(F)(F)F)cc4)cc3)c(=O)c2cc1Cl [ELQ-300, reference compound]
IC50 (P. falciparum strain D6; [11]): 6 nM
IC50 (P. falciparum strain D6; [10]): 3.1 nM
IC50 (P. falciparum strain Dd2; [12]): 6 nM
IC50 [1, 13]: 2 nM
minimal effective dose [2]: > 20 mg/kg
parasitemia suppression [2, 14]: suppressed parasitemia completely
recrudescence [2, 14]: recrudescence occurred within two weeks of dosing
inhibition of cytochrome bc1 complex [6]: sub-nanomolar

CCOC(=O)OC(C)Oc1c(-c2ccc(Oc3ccc(OC(F)(F)F)cc3)cc2)c(C)nc2cc(OC)c(Cl)cc12 (centres unmarked) [ELQ-387]
IC50 (P. falciparum strain D6; [15]): 326 nM
IC50 (P. falciparum strain Dd2; [16]): 141 nM
IC50 [1, 17]: 231 nM

COC(=O)Oc1c(-c2ccc(Oc3ccc(OC(F)(F)F)cc3)cc2)c(C)nc2cc(OC)c(Cl)cc12 [ELQ-336, 6-chloro-7-methoxy-2-methyl-3-(4-(4-(trifluoromethoxy)phenoxy)phenyl)quinolin-4-yl methyl carbonate]
IC50 (P. falciparum strain D6; [10]): 2.5 nM
minimal effective dose [2]: 4 mg/kg

COc1cc2nc(C)c(-c3ccc(Oc4ccc(OC(F)(F)F)cc4)cc3)c(OC(=O)C(C)C)c2cc1Cl [ELQ-375, 6-chloro-7-methoxy-2-methyl-3-(4-(4-(trifluoromethoxy)phenoxy)phenyl)quinolin-4-yl isobutyrate]
IC50 (P. falciparum strain D6; [10]): 8.2 nM
minimal effective dose [2]: 4 mg/kg

C=CCOC(=O)Oc1c(-c2ccc(Oc3ccc(OC(F)(F)F)cc3)cc2)c(C)nc2cc(OC)c(Cl)cc12 [ELQ-359, allyl (6-chloro-7-methoxy-2-methyl-3-(4-(4-(trifluoromethoxy)phenoxy)phenyl)quinolin-4-yl) carbonate]
IC50 (P. falciparum strain D6; [10]): 2.5 nM
minimal effective dose [2]: 4 mg/kg

COc1cc2nc(C)c(-c3ccc(Oc4ccc(OC(F)(F)F)cc4)cc3)c(OC(=O)OC3CCS(=O)(=O)C3)c2cc1Cl (centres unmarked) [ELQ-355, 6-chloro-7-methoxy-2-methyl-3-(4-(4-(trifluoromethoxy)phenoxy)phenyl)quinolin-4-yl (1,1-dioxidotetrahydrothiophen-3-yl) carbonate]
IC50 (P. falciparum strain D6; [10]): 3.9 nM
minimal effective dose [2]: 4 mg/kg

CCOC(=O)OCOc1c(-c2ccc(Oc3ccc(OC(F)(F)F)cc3)cc2)c(C)nc2cc(OC)c(Cl)cc12 [ELQ-331]
IC50 (P. falciparum strain D6; [15]): 6 nM
IC50 [1, 17]: 4 nM
lowest fully protective single-dose cure (SDC) [2]: 2.5 mg/kg
t1/2 [7]: 37.7 min

COc1cc2nc(C)c(-c3ccc(Oc4ccc(OC(F)(F)F)cc4)cc3)c(OC(=O)OCC3COC(C)(C)O3)c2cc1Cl (centres unmarked) [ELQ-374, 6-chloro-7-methoxy-2-methyl-3-(4-(4-(trifluoromethoxy)phenoxy)phenyl)quinolin-4-yl ((2,2-dimethyl-1,3-dioxolan-4-yl)methyl) carbonate]
IC50 (P. falciparum strain D6; [10]): 2.7 nM
minimal effective dose [2]: 4 mg/kg

O=C1C(O)=C([C@H]2CC[C@H](c3ccc(Cl)cc3)CC2)C(=O)c2ccccc21 [Atovaquone, reference compound]
IC50 (P. falciparum strain D6; [11]): 0.2 nM
IC50 (P. falciparum strain Dd2; [12]): 0.2 nM
IC50 [1, 13]: > 250 nM

COc1cc2nc(C)c(-c3ccc(Oc4ccc(OC(F)(F)F)cc4)cc3)c(OC(=O)C(C)(C)C)c2cc1Cl [ELQ-357, 6-chloro-7-methoxy-2-methyl-3-(4-(4-(trifluoromethoxy)phenoxy)phenyl)quinolin-4-yl pivalate]
IC50 (P. falciparum strain D6; [10]): 3.5 nM
minimal effective dose [2]: 4 mg/kg

COc1cc2nc(C)c(-c3ccc(Oc4ccc(OC(F)(F)F)cc4)cc3)c(OC(=O)N(C)C)c2cc1Cl [ELQ-301]
stability to metabolism [8]: stable to metabolism
in vivo efficacy compared to ELQ-300 [9]: inferior in vivo efficacy

COc1cc2nc(C)c(-c3ccc(Oc4ccc(OC(F)(F)F)cc4)cc3)c(OC(=O)OC(C)(C)C)c2cc1Cl [ELQ-358, tert-butyl (6-chloro-7-methoxy-2-methyl-3-(4-(4-(trifluoromethoxy)phenoxy)phenyl)quinolin-4-yl) carbonate]
IC50 (P. falciparum strain D6; [10]): 6 nM
minimal effective dose [2]: > 4 mg/kg

COc1cc2nc(C)c(-c3ccc(Oc4ccc(OC(F)(F)F)cc4)cc3)c(OC(=O)c3ccccc3)c2cc1Cl [ELQ-379, 6-chloro-7-methoxy-2-methyl-3-(4-(4-(trifluoromethoxy)phenoxy)phenyl)quinolin-4-yl benzoate]
IC50 (P. falciparum strain D6; [10]): 2.5 nM

COc1cc2nc(C)c(-c3ccc(Oc4ccc(OC(F)(F)F)cc4)cc3)c(OC(=O)OCC3COC(=O)O3)c2cc1Cl (centres unmarked) [ELQ-373, 6-chloro-7-methoxy-2 methyl-3-(4-(4-(trifluoromethoxy)phenoxy)phenyl)quinolin-4-yl ((2-oxo-1,3-dioxolan-4-yl)methyl) carbonate]
IC50 (P. falciparum strain D6; [10]): 3.1 nM
minimal effective dose [2]: 4 mg/kg

COc1cc2nc(C)c(-c3ccc(Oc4ccc(OC(F)(F)F)cc4)cc3)c(OCOC(=O)OC(C)C)c2cc1Cl [ELQ-330]
IC50 (P. falciparum strain D6; [15]): 62 nM
IC50 (P. falciparum strain Dd2; [16]): 38 nM
IC50 [1, 17]: 47 nM
lowest fully protective single-dose cure (SDC) [2]: 5 mg/kg
